Like-named read-outs stand apart in the source and are kept apart here.
What was measured:
healthy subjects = assay: Study K.241.5009: esophageal visceral perception; assay type: in vivo, human; conditions: mean (SD); for Pressure first producing esophageal pain / Pressure first producing esophageal sensation / Volume first producing esophageal pain / Volume first producing esophageal sensation: absolute value; for Pressure first producing esophageal pain, Differences from Placebo / Pressure first producing esophageal sensation, Differences from Placebo / Volume first producing esophageal pain, Differences from Placebo / Volume first producing esophageal sensation, Differences from Placebo: not significant
Procedure: The effect of cilansetron on esophageal visceral perception was evaluated in a randomized, double-blind, placebo-controlled, 3-way crossover study in 12 male healthy subjects (ITT population), aged 32-62 years. Subjects received placebo, cilansetron 4 mg, or cilansetron 8 mg administered orally TID for 7 days during each of the 3 periods, with a 7-day washout between periods. Esophageal distension tests were done one hour after administration of the second dose on Day 7 of each treatment. A manually inflated intraesophageal balloon was used to produce distensions (successive 1 mL increases, up to a sensation of […] pain or a maximum balloon volume of 20 mL). The primary efficacy parameter was the distension volume inducing esophageal pain. Secondary parameters were the distension volumes and pressures leading to first esophageal sensation. The pain threshold and other secondary parameters for each of the cilansetron doses was compared to placebo using a one-sided Dunnett t-test.

[1] = system: diarrhea-predominant IBS subjects; assay type: in vivo, human; parameters: key to Daily stool consistency score, mean change from Baseline at end of treatment / Mean stool consistency score at end of treatment / Stool consistency, mean change from rerandomization Baseline: stool consistency on a seven-point daily diary scale
Source text: Studies S24 1.3.OO6, S24 1.3.0 1 1, and S24 1.3.009 used the following efficacy measurements: • The subjects answered the following three questions with “yes” or “no” using a phone diary at the end of each week: • a) During the last week, did you experience adequate relief of your IBS symptoms, such as abdominal pain, abdominal discomfort, abnormal bowel habits? • b) During the last week, did you experience adequate relief of your abdominal pain and/or discomfort? • c) During the last week, did you experience adequate relief of your abnormal bowel habits? • The subjects rated the following symptoms using the phone diary at the end of each day: • abdominal pain/discomfort (five-point scale); • stool consistency (seven-point Bristol Stool Scale); • stool frequency (number of bowel movements each day); • urgency (five-point scale); • straining (yes or no); • feeling of incomplete defecation (yes or no); • bloating or feeling of abdominal distension (five-point scale). • In Studies S241 A006 and S241.3.009, subjects completed the IBS-QOL Survey at Baseline (Day 1) and at the end of treatment. In Study S24 1.3.0 1 1, subjects completed the IBS-QOL Survey at Baseline (Day 1), at the end of the three-month treatment period, and at the end of rerandomized treatment.
Other secondary efficacy parameters for all three studies included: • Responder rate for the weekly diary questions on adequate relief at each month, where a responder for a month (monthly responder) was defined as a subject who answered the weekly question with “yes” at least twice for that month. The responder rate was the percentage of responders within a treatment group. The all-month responder rate for the weekly diary questions on adequate relief was also evaluated, where an all-month responder was defined as a subject who answered the weekly question with “yes” at least twice for each month. The all-month responder rate was the percentage of all-month responders within a treatment group; • Adequate relief rate for the weekly diary questions was calculated for each subject as the number of weekly assessments with adequate relief (“yes”) divided by the total number of weekly assessments; • Percentage of subjects with adequate relief for the weekly diary questions at each week; • Daily diary questions regarding abdominal pain/discomfort (five-point scale), stool consistency (seven-point scale), stool frequency (number of bowel movements each day), straining (yes or no), urgency (five-point scale), feeling of incomplete evacuation (yes or no), and bloating or feeling of abdominal distention (five-point scale); • QOL data assessed by the IBS-QOL questionnaire; and • Question to determine the interruption of activities.

clinical = conditions: human, in vivo, 16 mg
Procedure: In a single-dose, crossover study conducted to evaluate the potential for a drug-drug interaction between liquid Maalox and cilansetron, 12 male and 12-female subjects (aged 19-39 years) received single doses of cilansetron 16 mg alone and cilansetron 16 mg+Maalox in a crossover fashion under fasted conditions. Blood samples for measurement of plasma cilansetron pharmacokinetics were collected up to 24 hours postdose following each treatment.
The effect of concomitantly administered antacid (liquid Maalox) on the pharmacokinetics of cilansetron has been evaluated in a single-dose, crossover study in 24 healthy, male and female subjects, aged 19 to 39 years. Subjects received the following two treatments during each of the study periods in a crossover fashion: a single oral dose of cilansetron 16 mg tablet (reference treatment); a single oral dose of cilansetron 16 mg tablet+20 mL oral Maalox liquid administered every 4 hours (test treatment; 4 doses of Maalox in total; cilansetron was administered 5 minutes after the first dose of Maalox). Both cilansetron treatments were administered under fasted conditions.

[2] = male, human, in vivo
Procedure: Subjects were treated with a single oral dose of cilansetron 8 mg (tablet) on Day 1, followed by 8 mg TID for 5 days (Days 2-6) and a single 8 mg dose on the morning of Day 7. Young subjects ranged in age from 19-45 years, and elderly from 66-79 years. Serial blood samples were collected up to 24 hours postdose on Days 1 and 7, and cilansetron pharmacokinetic parameters were calculated. Doses on pharmacokinetic sampling days were administered under fasted conditions.
Young subjects ranged in age from 19-45 years, and elderly from 66-79 years. Serial blood samples were collected up to 24 hours postdose on Days 1 and 7, and cilansetron pharmacokinetic parameters were evaluated. Doses on pharmacokinetic sampling days were administered under fasted conditions.

For Cc1nccn1C[C@H]1CCc2c(c3cccc4c3n2CCC4)C1=O [Cilansetron, (R)-(−)-4,5,6,8,9,10-hexahydro-10-[(2-methyl-1H-imidazol-1-yl)methyl]-11H-pyrido-[3,2,1-jk]-carbazol-11-one], the “Pressure first producing esophageal pain” value (healthy subjects; 4 mg TID oral 7 days) was 42.3 (11.3) mmHg, the “Pressure first producing esophageal sensation” value (healthy subjects; 4 mg TID oral 7 days) was 27.4 (9.6) mmHg and the “Volume first producing esophageal pain” value (healthy subjects; 4 mg TID oral 7 days) was 14.6 (4.3) mL. The “Volume first producing esophageal sensation” value (healthy subjects; 4 mg TID oral 7 days) was 5.3 (3.5) mL, the “Pressure first producing esophageal pain, Differences from Placebo” value (healthy subjects; 4 mg TID oral 7 days) was 3.0 (24.0) mmHg and the “Pressure first producing esophageal sensation, Differences from Placebo” value (healthy subjects; 4 mg TID oral 7 days) was −2.5 (16.4) mmHg. The “Volume first producing esophageal pain, Differences from Placebo” value (healthy subjects; 4 mg TID oral 7 days) was 1.4 (4.9) mL, the “Volume first producing esophageal sensation, Differences from Placebo” value (healthy subjects; 4 mg TID oral 7 days) was −0.3 (4.8) mL and the “Pressure first producing esophageal pain” value (healthy subjects; 8 mg TID oral 7 days) was 41.0 (12.5) mmHg. The “Pressure first producing esophageal sensation” value (healthy subjects; 8 mg TID oral 7 days) was 28.4 (10.9) mmHg, the “Volume first producing esophageal pain” value (healthy subjects; 8 mg TID oral 7 days) was 13.9 (5.8) mL and the “Volume first producing esophageal sensation” value (healthy subjects; 8 mg TID oral 7 days) was 5.2 (3.6) mL. For the same compound, the “Pressure first producing esophageal pain, Differences from Placebo” value (healthy subjects; 8 mg TID oral 7 days) was 1.3 (22.5) mmHg, the “Pressure first producing esophageal sensation, Differences from Placebo” value (healthy subjects; 8 mg TID oral 7 days) was −2.5 (6.9) mmHg and the “Volume first producing esophageal pain, Differences from Placebo” value (healthy subjects; 8 mg TID oral 7 days) was 0.8 (3.6) mL. The “Volume first producing esophageal sensation, Differences from Placebo” value (healthy subjects; 8 mg TID oral 7 days) was −0.5 (1.8) mL, the “Mean number of stools per day at end of treatment” value ([1]; 2 mg TID) was 2.41 stools per day and the “Abdominal pain/discomfort, mean change from rerandomization Baseline” value (shortened to “Abdominal pain/discomfort, mean change”) ([1]; C/C) was −0.09. For the same compound, the “Bloating, mean change from rerandomization Baseline” value (“Bloating, mean change” below) ([1]; C/C) was −0.05, the “Incomplete evacuation, mean change from Rerandomization Baseline” value ([1]; C/C) was 0.01 and the “Stool consistency, mean change from rerandomization Baseline” value (“Stool consistency, mean change” for short) ([1]; C/C) was −0.09. For the same compound, the “Stools per day, mean change from rerandomization Baseline” value ([1]; C/C) was −0.02, the “Urgency, mean change from rerandomization Baseline” value (shortened to “Urgency, mean change”) ([1]; C/C) was −0.05 and the “Abdominal pain/discomfort, mean change” value ([1]; C/P) was 0.16. For the same compound, the “Bloating, mean change” value ([1]; C/P) was 0.16, the “Incomplete evacuation, mean change from Rerandomization Baseline” value ([1]; C/P) was 0.05 and the “Stool consistency, mean change” value ([1]; C/P) was 0.55. For the same compound, the “Stools per day, mean change from rerandomization Baseline” value ([1]; C/P) was 0.22, the “Urgency, mean change” value ([1]; C/P) was 0.25 and the “Abdominal pain/discomfort, mean change” value ([1]; P/C) was −0.08. For the same compound, the “Bloating, mean change” value ([1]; P/C) was −0.03, the “Incomplete evacuation, mean change from Rerandomization Baseline” value ([1]; P/C) was −0.02 and the “Stool consistency, mean change” value ([1]; P/C) was −0.84. For the same compound, the “Stools per day, mean change from rerandomization Baseline” value ([1]; P/C) was −0.31, the “Urgency, mean change” value ([1]; P/C) was −0.27 and the “Median rate of urgency-free days” value ([1]; end of treatment) was 0.25. The “Median rate of pain-free days” value ([1]; end of treatment (last two weeks)) was 0.15, the “Bloating or abdominal distention score, mean change from Baseline at end of treatment” value ([1]; in vivo) was −0.43 and the “Daily abdominal pain/discomfort score, mean change from Baseline at end of treatment” value ([1]; in vivo) was −0.69. The “Daily stool consistency score, mean change from Baseline at end of treatment” value ([1]; in vivo) was −1.02, the “Daily urgency score, mean change from Baseline at end of treatment” value ([1]; in vivo) was −0.78 and the “Feeling of incomplete evacuation, mean change from Baseline at end of treatment” value ([1]; in vivo) was −0.20. The “Mean stool consistency score at end of treatment” value ([1]; in vivo) was 4.28, the “Mean straining, mean change from Baseline at end of treatment” value ([1]; in vivo) was 0.05 and the “Stools per day, mean change from Baseline at end of treatment” value ([1]; in vivo) was −0.91. The “Median rate of pain-free days” value ([1]; three-month period) was 0.22, the “Median rate of urgency-free days” value ([1]; three-month period) was 0.31 and the AUC(0-inf) (clinical; both) was 264 ng·h/mL. It also gave an AUC(0-t) (clinical; both) of 264 ng·h/mL, a Cmax (clinical; both) of 102 ng/mL and a Vd/F (clinical; both) of 237 L. It also gave a half-life (clinical; both) of 143 min, an AUC(0-inf) (clinical; female) of 361 ng·h/mL and an AUC(0-t) (clinical; female) of 360 ng·h/mL. It also gave a Cmax (clinical; female) of 137 ng/mL, a Vd/F (clinical; female) of 202 L and a half-life (clinical; female) of 178 min. For the same compound, the AUC(0-inf) (clinical; male) was 159 ng·h/mL, the AUC(0-t) (clinical; male) was 159 ng·h/mL and the Cmax (clinical; male) was 63.1 ng/mL. The Vd/F (clinical; male) was 276 L, the half-life (clinical; male) was 105 min and the “AUC(0-inf)” value [2] was 252 (123) ng · h/mL.

Source: patent US20090176817A1, “Method of Treatment of Diarrhea-Predominant Irritable Bowel Syndrome in a Subject” (priority 2005, published 2009)
